# Molecular target: human TLR7 (Homo sapiens (Human), UniProt Q9NYK1)
# Assay: Test for evaluating the inhibition of the activation of human TLR7 (SEAP reporter, TLR7/NF-κB/SEAPorter HEK293 cell)
# Type: cell-based
# Conditions: R-848 200 nmol/L; for inhibitory effect against TLR7 in the test for evaluating inhibition of the activation of TLR7: SEAP activity, result in words; for IC50: SEAP reporter
# Description: As human TLR7 expressing cell line, HEK293 cell line was bought from IMGENEX Corporation (TLR7/NF-ηB/SEAPorter™ HEK293 cell), which is human embryonic kidney cell line and stably expresses full-length human TLR7 gene and secreted alkaline phosphatase (SEAP) reporter gene under the transcriptional control of an NE-ηB response element. The TLR7/NF-ηB/SEAPorter™ HEK293 cell was cultivated with DMEM containing 10% fetal bovine serum (FBS) and 10 μg/mL blasticidin S at 37° C. in the presence of 5% CO2. The TLR7/NF-ηB/SEAPorter™ HEK293 cell was seeded into 96-well microtiter plate at 5×10^4 cell/90 μL/well, and the place was cultivated at 37° C. in a CO2 incubator overnight.
# Each compound prepared in the Examples was evaluated by Test 1.
# Sequence of human TLR7 (Q9NYK1 27-1049): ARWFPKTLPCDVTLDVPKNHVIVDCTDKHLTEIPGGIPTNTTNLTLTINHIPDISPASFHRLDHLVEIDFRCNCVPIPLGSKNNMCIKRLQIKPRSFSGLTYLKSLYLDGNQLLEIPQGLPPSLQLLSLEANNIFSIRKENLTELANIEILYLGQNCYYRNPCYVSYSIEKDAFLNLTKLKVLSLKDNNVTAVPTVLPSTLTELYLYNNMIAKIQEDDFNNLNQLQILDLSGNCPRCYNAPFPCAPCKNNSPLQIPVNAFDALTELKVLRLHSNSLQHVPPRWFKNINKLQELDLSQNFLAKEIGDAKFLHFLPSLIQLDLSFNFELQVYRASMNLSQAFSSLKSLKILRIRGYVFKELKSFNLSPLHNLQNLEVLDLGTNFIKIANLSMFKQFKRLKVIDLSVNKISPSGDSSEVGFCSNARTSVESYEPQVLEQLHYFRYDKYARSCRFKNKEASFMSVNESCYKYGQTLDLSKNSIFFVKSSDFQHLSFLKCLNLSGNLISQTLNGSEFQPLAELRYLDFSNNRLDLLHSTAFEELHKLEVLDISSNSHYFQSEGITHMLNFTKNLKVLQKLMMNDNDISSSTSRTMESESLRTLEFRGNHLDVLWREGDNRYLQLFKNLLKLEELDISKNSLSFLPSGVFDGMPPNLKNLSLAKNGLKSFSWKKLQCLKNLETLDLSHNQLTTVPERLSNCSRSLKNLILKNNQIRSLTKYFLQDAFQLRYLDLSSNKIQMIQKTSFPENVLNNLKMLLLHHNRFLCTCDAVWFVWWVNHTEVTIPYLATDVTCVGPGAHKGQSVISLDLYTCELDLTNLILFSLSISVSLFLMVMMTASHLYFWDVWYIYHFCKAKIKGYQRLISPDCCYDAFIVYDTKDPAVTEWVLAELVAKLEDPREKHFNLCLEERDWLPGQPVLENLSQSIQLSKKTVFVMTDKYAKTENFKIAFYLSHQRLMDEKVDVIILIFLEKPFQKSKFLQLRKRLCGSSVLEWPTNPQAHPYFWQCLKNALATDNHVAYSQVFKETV
SMILES,inhibitory effect against TLR7 in the test for evaluating inhibition of the activation of TLR7,IC50 [nM]
"COc1nc(C)c2nc(-c3cncc(F)c3)n(Cc3ccc(C4CN5CCC4CC5)cc3F)c2n1 (single isomer, unassigned) [Example 392, 9-[4-(1-azabicyclo[2.2.2]oct-3-yl)-2-fluorobenzyl]-8-(5-fluoropyridin-3-yl)-2-methoxy-6-methyl-9H-purine]",–,13
"COc1nc(C)c2nc(-c3cncc(F)c3)n(Cc3ccc(O[C@H]4CN5CCC4CC5)cc3F)c2n1 [Example 413, 9-{4-[(3R)-1-azabicyclo[2.2.2]oct-3-yloxy]-2-fluorobenzyl}-8-(5-fluoropyridin-3-yl)-2-methoxy-6-methyl-9H-purine]",potent inhibitory effect against TLR7,9
CCCCOc1nc(N)c2nc(-c3cncc(OC)c3)n(Cc3ccccc3)c2n1 [Example 10],–,800
COc1nc(C)c2nc(-c3ccc(C(N)=O)nc3)n(Cc3ccc(OC4CN5CCC4CC5)cc3F)c2n1 (centres unmarked) [Example 439],–,134
"COc1nc(C)c2nc(-c3cncc(C)c3)n(Cc3ccc(C4CN5CCC4CC5)cc3F)c2n1 (centres unmarked) [Example 305, 9-[4-(1-azabicyclo[2.2.2]oct-3-yl)-2-fluorobenzyl]-2-methoxy-6-methyl-8-(5-methylpyridin-3-yl)-9H-purine]",potent inhibitory effect against TLR7,5
CCOc1nc(N)c2nc(-c3cncc(F)c3)n(Cc3ccc(CN4CC(C(F)F)C4)cc3)c2n1 [Example 105],potent inhibitory effect against TLR7,59
COc1nc(C)c2nc(-c3cncc(F)c3)n(Cc3ccc(O[C@H]4CN5CCC4CC5)nc3)c2n1 [Example 70],potent inhibitory effect against TLR7,110
CCOc1nc(C)c2nc(-c3cncc(F)c3)n(Cc3cnc(C4CN5CCC4CC5)cc3OC)c2n1 (centres unmarked) [Example 374],–,1630
"CCOc1nc(C)c2nc(-c3cncc(F)c3)n(Cc3ccc(C4CN5CCC4CC5)cn3)c2n1 (centres unmarked) [Example 370, 9-{[5-(1-Azabicyclo[2.2.2]oct-3-yl)pyridin-2-yl]methyl}-2-ethoxy-8-(5-fluoropyridin-3-yl)-6-methyl-9H-purine]",–,117
CCCCOc1nc(C)c2nc(-c3cncc(F)c3)n(Cc3ccc(CO)cc3)c2n1 [Example 79],–,3500
CCCCOc1nc(N)c2nc(-c3cnn(C)c3)n(Cc3ccccc3)c2n1 [Example 8],–,9300
"COc1nc(C)c2nc(-c3cccnc3)n(Cc3ccc(C4CN5CCC4CC5)cc3F)c2n1 (centres unmarked) [Example 303, 9-[4-(1-azabicyclo[2.2.2]oct-3-yl)-2-fluorobenzyl]-2-methoxy-6-methyl-8-(pyridin-3-yl)-9H-purine]",potent inhibitory effect against TLR7,7
"CCOc1nc(N)c2nc(-c3cncc(F)c3)n(Cc3ccc(O[C@@H]4CN5CCC4CC5)cc3)c2n1 [Example 66, 9-{4-[(3S)-1-Azabicyclo[2.2.2]oct-3-yloxy]benzyl}-2-ethoxy-8-(5-fluoropyridin-3-yl)-9H-purine-6-amine]",potent inhibitory effect against TLR7,21
Cc1nc(O)nc2c1nc(-c1cncc(F)c1)n2Cc1ccc(C2CN3CCC2CC3)cc1F (centres unmarked) [Example 389],–,2040
"COc1nc(C)c2nc(-c3cncc(F)c3)n(Cc3ccc(C4CN5CCC4CC5)c(F)c3)c2n1 (centres unmarked) [Example 377, 9-[4-(1-azabicyclo[2.2.2]oct-3-yl)-3-fluorobenzyl]-8-(5-fluoropyridin-3-yl)-2-methoxy-6-methyl-9H-purine]",potent inhibitory effect against TLR7,7
CCCCOc1nc(N)c2nc(-c3cncc(F)c3)n(Cc3ccc(CN4CCOCC4)cc3)c2n1 [Example 83],–,1300
"COc1nc(C)c2nc(-c3cncc(F)c3)n(Cc3ccc(C4CN5CCC4CC5)cc3F)c2n1 (single isomer, unassigned) [Example 393, 9-[4-(1-azabicyclo[2.2.2]oct-3-yl)-2-fluorobenzyl]-8-(5-fluoropyridin-3-yl)-2-methoxy-6-methyl-9H-purine]",–,1
CCCCOc1nc(N)c2nc(-c3ccoc3)n(Cc3ccccc3)c2n1 [Example 7],–,7800
"COc1nc(C)c2nc(-c3cncc(F)c3)n(Cc3ccc(O[C@@H]4CN5CCC4CC5)cc3F)c2n1 [Example 412, 9-{4-[(3S)-1-azabicyclo[2.2.2]oct-3-yloxy]-2-fluorobenzyl}-8-(5-fluoropyridin-3-yl)-2-methoxy-6-methyl-9H-purine]",potent inhibitory effect against TLR7,5
COc1nc(C)c2nc(-c3cnc(C)nc3)n(Cc3ccc(OC4CN5CCC4CC5)cc3F)c2n1 (centres unmarked) [Example 329],–,120
CCOc1nc(N)c2nc(-c3cncc(F)c3)n(Cc3ccc(N4CCN(C)CC4)nc3)c2n1 [Example 65],–,550
CCOc1nc(C)c2nc(-c3cncc(F)c3)n(Cc3ccc(CN4[C@@H]5CC[C@H]4CN(C)C5)cc3)c2n1 [Example 265],potent inhibitory effect against TLR7,57
CCOc1nc(N)c2nc(-c3cncc(F)c3)n(Cc3ccc(O[C@H]4CCN(C)C4)nc3)c2n1 [Example 39],–,820

# Now from value to compound:
inhibitory effect against TLR7 in the test for evaluating inhibition of the activation of TLR7,IC50 [nM],SMILES
potent inhibitory effect against TLR7,21,COc1nc(C)c2nc(-c3cncc(F)c3)n(Cc3ccc(CC4CCN(C)CC4)cc3F)c2n1 [Example 283]
potent inhibitory effect against TLR7,50,CCOc1nc(C)c2nc(-c3cncc(F)c3)n(Cc3cnn(C4CCN(C)CC4)c3)c2n1 [Example 166]
potent inhibitory effect against TLR7,8,"COc1nc(C)c2nc(-c3cncc(F)c3)n(Cc3ccc(C4CCN(C)CC4)cc3F)c2n1 [Example 282, 9-[2-fluoro-4-(1-methylpiperidin-4-yl)benzyl]-8-(5-fluoropyridin-3-yl)-2-methoxy-6-methyl-9H-purine]"
–,99,CCOc1nc(C)c2nc(-c3cncc(F)c3)n(Cc3cnn(CC4CCNC4)c3)c2n1 (centres unmarked) [Example 271]
potent inhibitory effect against TLR7,8,COc1nc(C)c2nc(-c3cncc(F)c3)n(Cc3ccc(C4CCNCC4)cc3F)c2n1 [Example 431]
potent inhibitory effect against TLR7,17,"CCN1CCC(c2ccc(Cn3c(-c4cncc(F)c4)nc4c(C)nc(OC)nc43)c(F)c2)C1 (centres unmarked) [Example 291, 9-[4-(1-ethylpyrrolidin-3-yl)-2-fluorobenzyl]-8-(5-fluoropyridin-3-yl)-2-methoxy-6-methyl-9H-purine]"
–,16200,CCCCOc1nc(N)c2nc(-c3ccc(N(C)C)cc3)n(Cc3ccccc3)c2n1 [Example 179]
–,199,CCOc1nc(C)c2nc(-c3cncc(F)c3)n(Cc3cnc(C4CCN(C)CC4)cc3OC)c2n1 [Example 375]
potent inhibitory effect against TLR7,22,"COc1nc(C)c2nc(-c3cncc(F)c3)n(Cc3ccc(C4CCN(C)C4)cc3F)c2n1 (centres unmarked) [Example 290, 9-[2-fluoro-4-(1-methylpyrrolidin-3-yl)benzyl]-8-(5-fluoropyridin-3-yl)-2-methoxy-6-methyl-9H-purine]"
potent inhibitory effect against TLR7,85,CCOc1nc(N)c2nc(-c3cncc(F)c3)n(Cc3ccc(C4CCN(C5COC5)CC4)cc3)c2n1 [Example 135]
–,1340,COc1nc(C)c2nc(-c3cncc(F)c3)n(Cc3ccc(Br)cc3F)c2n1 [Example 337]
–,120,"CCOc1nc(N)c2nc(-c3cncc(F)c3)n(Cc3ccc(COCCN(C)C)cc3)c2n1 [Example 140, 9-(4-{[2-(Dimethylamino)ethoxy]methyl}benzyl)-2-ethoxy-8-(5-fluoropyridin-3-yl)-9H-purine-6-amine]"
–,27,CCOc1nc(C)c2nc(-c3cncc(F)c3)n(Cc3cnn(CC4CCCNC4)c3)c2n1 (centres unmarked) [Example 268]
–,100,CCCCOc1nc(C)c2nc(-c3cncc(F)c3)n(Cc3ccc(CN4CCOCC4)cc3)c2n1 [Example 112]
potent inhibitory effect against TLR7,13,"CCCN1C[C@@H]2C[C@H]1CN2Cc1ccc(Cn2c(-c3cncc(F)c3)nc3c(C)nc(OC)nc32)cc1 [Example 133, 8-(5-fluoropyridin-3-yl)-2-methoxy-6-methyl-9-(4-{[(1S,4S)-5-propyl-2,5-diazabicyclo[2.2.1]hept-2-yl]methyl}benzyl)-9H-purine]"
potent inhibitory effect against TLR7,28,COc1nc(N)c2nc(-c3cncc(F)c3)n(Cc3ccc(CN4C[C@@H]5C[C@H]4CN5C)cc3)c2n1 [Example 161]
–,1570,"CCOc1nc(N)c2nc(-c3cncc(F)c3)n(Cc3ccc(C(=O)N4CCN(C)CC4)cc3)c2n1 [Example 143, (4-{[6-Amino-2-ethoxy-8-(5-fluoropyridin-3-yl)-9H-purin-9-yl]methyl}phenyl) (4-methylpiperazin-1-yl)methanone]"
–,19700,COCCOc1nc(N)c2nc(-c3cncc(S(C)(=O)=O)c3)n(Cc3ccc(CN(C)C)cc3)c2n1 [Example 181]
